In EP4512427A1, “ANTIBODY-DRUG CONJUGATES BASED ON MOLECULAR GLUE DEGRADERS AND USES THEREOF” (Mablink Bioscience, priority 2023, dated 2025):

Legend:
[1] = system: BT-474; test: In vitro cytotoxicity assay (MTT); type: cell-based, human; conditions: Homo sapiens, BT-474, 144 h
Procedure: (§1) In vitro cytotoxicity of compounds of the disclosure was assessed on several cancerous human cell lines. Cells were plated in 96-well plates at an appropriate density depending on the cell line (between 1000 and 10 000 cells/well in 100µL of appropriate culture media) and incubated at 37°C for 24 hours. Serial dilutions of the tested compound previously dissolved in culture media (50µL) were added, and incubation was carried at 37°C out for 6 days. MTT (5mg/mL in PBS, 20µL, Sigma-Aldrich) was added into the wells, and incubation was continued for 1 to 4 hours at 37°C. Culture media was then carefully removed, and well content was homogeneously dissolved with acidified isopropanol. Absorbance values were measured on a microplate reader using a wavelength of 570 nm (with a reference wavelength of 690 nm). The IC50 concentration values compared to untreated control cells were determined using inhibition dose response curve fitting (GraphPad Prism 9). Exatecan mesylate (cat#HY-13631A) and CR8 (CAS# 294646-77-8; cat#HY-18340) were purchased from MedChemExpress (China).

[2] = system: JIMT-1; test: In vitro cytotoxicity assay (MTT); type: cell-based, human; conditions: Homo sapiens, 144 h, 6 days incubation
Procedure: as §1

[3] = system: MDA-MB-231; test: In vitro cytotoxicity assay (MTT); type: cell-based, human; conditions: Homo sapiens, 6 days incubation
Procedure: as §1

[4] = system: MDA-MB-453; test: In vitro cytotoxicity assay (MTT); type: cell-based, human; conditions: Homo sapiens, 6 days incubation
Procedure: as §1

[5] = system: NCI-N87; test: In vitro cytotoxicity assay (MTT); type: cell-based, human; conditions: Homo sapiens, 6 days incubation
Procedure: as §1

[6] = system: SKBR-3; test: In vitro cytotoxicity assay (MTT); type: cell-based, human; conditions: Homo sapiens, SK-BR-3, 144 h, 6 days incubation
Procedure: as §1

[7] = target: T1, MDR1 (Homo sapiens, UniProt P08183); test: MDR1 efflux substrate assay in MDCK-MDR1; type: in vitro ADME; conditions: for Papp A→B at 60 min, 5 µM / Papp B→A at 60 min, 5 µM / efflux ratio at 60 min, 5 µM: dog; for Papp A→B at 60 min, 5 µM / Papp B→A at 60 min, 5 µM: MDCK-MDR1, 5µM, pH 7.4; for Papp A→B at 60 min, 5 µM: read-out: Papp A (donor) to B (acceptor); for Papp B→A at 60 min, 5 µM: read-out: Papp B (acceptor) to A (donor); for efflux ratio at 60 min, 5 µM: MDCK-MDR1, pH 7.4, read-out: Efflux ratio B/A; for MDR1 efflux potential: in words
T1 construct: host or cells: MDCK-MDR1 (Preadyport)
Procedure: (§2) MDR1 and BCRP efflux substrate assays were conducted in MDCK-MDR1 and MDCK-BCRP in vitro models (Preadyport™, Solvo Biotech) at Symeres (Nederland). Compound of the invention (donor well concentration of 5µM) were incubated in cell monolayer 24-transwell Preadyport system, using Preadyport recommended pH 7.4 assay buffer (donor and receiver wells). After 60 min of incubation (no shaking), samples are collected and suspended into triple volume of 66% cold acetonitrile. Samples are stored at -20°C until thawed, centrifuged and analyzed by LC-MS. Quinidine was used a positive control for the MDR1 assay, and prazosin was used as a positive control for the BCRP assay. Exatecan was used as a control, known not to be an MDR1 substrate. Residual DMSO content from compounds stock solutions was below 1% (v/v). The assay was performed in duplicate. The quantification of test compounds in donor or receptor compartment is conducted using relative LC/MS peak areas (samples of initial incubation solutions are used as a single point calibrator), without any spiked standard samples. The data is used for estimating apparent permeability (Papp) and calculation of efflux ratio.

[8] = target: T2, BCRP (Homo sapiens, UniProt Q9UNQ0); test: BCRP efflux substrate assay in MDCK-BCRP; type: in vitro ADME; conditions: for efflux ratio at 60 min, 5 µM / Papp A→B at 60 min, 5 µM / Papp B→A at 60 min, 5 µM: dog, pH 7.4, MDCK-BCRP; for efflux ratio at 60 min, 5 µM: read-out: Efflux ratio B/A; for Papp A→B at 60 min, 5 µM: read-out: Papp A (donor) to B (acceptor); for Papp B→A at 60 min, 5 µM: read-out: Papp B (acceptor) to A (donor); for BCRP efflux potential: in words
T2 construct: host or cells: MDCK-BCRP (Preadyport)
T2 sequence (Q9UNQ0 1-655): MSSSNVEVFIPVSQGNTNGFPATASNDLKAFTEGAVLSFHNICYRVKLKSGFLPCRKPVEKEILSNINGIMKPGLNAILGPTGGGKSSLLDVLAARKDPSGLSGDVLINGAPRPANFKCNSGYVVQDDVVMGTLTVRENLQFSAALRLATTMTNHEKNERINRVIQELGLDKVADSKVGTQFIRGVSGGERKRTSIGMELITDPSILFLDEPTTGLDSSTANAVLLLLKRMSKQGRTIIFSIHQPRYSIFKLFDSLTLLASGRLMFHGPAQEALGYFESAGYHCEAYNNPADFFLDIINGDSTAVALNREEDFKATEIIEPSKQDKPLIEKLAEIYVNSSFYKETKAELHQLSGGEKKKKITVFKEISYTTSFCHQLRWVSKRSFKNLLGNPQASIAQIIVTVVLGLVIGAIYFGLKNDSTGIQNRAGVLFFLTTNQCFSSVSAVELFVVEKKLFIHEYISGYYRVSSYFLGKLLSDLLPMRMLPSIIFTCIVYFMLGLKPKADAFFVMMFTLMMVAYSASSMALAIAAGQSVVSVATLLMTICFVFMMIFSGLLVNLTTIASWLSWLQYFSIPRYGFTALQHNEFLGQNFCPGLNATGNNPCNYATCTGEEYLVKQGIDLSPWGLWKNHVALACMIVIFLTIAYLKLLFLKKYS
Procedure: as §2

[9] = in vitro; conditions: PAMPA, pH 7.4
Procedure: Stock solutions of compounds of the invention were prepared in dimethyl sulfoxide (DMSO) to a final concentration of 10 mM. Each stock solution was diluted to 50 µM in pH 7.4 Prisma HT buffer (pION) in the presence of 10% MeOH (v/v). 200 µL were added to each well of the donor plate in quintuplicate. […] The acceptor filter plate was carefully placed on top of the donor plate to form a "sandwich." The sandwich was incubated at 25°C for 5 h, at 300 rpm. UV-vis spectra of the solutions in the blank, reference, acceptor, and donor plates were measured using a Tecan Infinite 200 PRO M Nano Plus microplate reader.

[10] = system: BXPC3; test: In vitro cytotoxicity assay (MTT); type: cell-based; conditions: Homo sapiens, BXPC-3, 144 h, 6 days incubation
Procedure: as §1

[11] = system: HT-29; test: In vitro cytotoxicity assay (MTT); type: cell-based; conditions: Homo sapiens, 144 h, 6 days incubation
Procedure: as §1

[12] = system: MCF-7; test: In vitro cytotoxicity assay (MTT); type: cell-based; conditions: Homo sapiens, MCF7, 144 h, 6 days incubation
Procedure: as §1

[13] = system: KB-1; test: In vitro cytotoxicity assay (MTT); type: cell-based; conditions: Homo sapiens, KB16, 144 h, 6 days incubation
Procedure: as §1

T1 sequence (P08183 whole entry): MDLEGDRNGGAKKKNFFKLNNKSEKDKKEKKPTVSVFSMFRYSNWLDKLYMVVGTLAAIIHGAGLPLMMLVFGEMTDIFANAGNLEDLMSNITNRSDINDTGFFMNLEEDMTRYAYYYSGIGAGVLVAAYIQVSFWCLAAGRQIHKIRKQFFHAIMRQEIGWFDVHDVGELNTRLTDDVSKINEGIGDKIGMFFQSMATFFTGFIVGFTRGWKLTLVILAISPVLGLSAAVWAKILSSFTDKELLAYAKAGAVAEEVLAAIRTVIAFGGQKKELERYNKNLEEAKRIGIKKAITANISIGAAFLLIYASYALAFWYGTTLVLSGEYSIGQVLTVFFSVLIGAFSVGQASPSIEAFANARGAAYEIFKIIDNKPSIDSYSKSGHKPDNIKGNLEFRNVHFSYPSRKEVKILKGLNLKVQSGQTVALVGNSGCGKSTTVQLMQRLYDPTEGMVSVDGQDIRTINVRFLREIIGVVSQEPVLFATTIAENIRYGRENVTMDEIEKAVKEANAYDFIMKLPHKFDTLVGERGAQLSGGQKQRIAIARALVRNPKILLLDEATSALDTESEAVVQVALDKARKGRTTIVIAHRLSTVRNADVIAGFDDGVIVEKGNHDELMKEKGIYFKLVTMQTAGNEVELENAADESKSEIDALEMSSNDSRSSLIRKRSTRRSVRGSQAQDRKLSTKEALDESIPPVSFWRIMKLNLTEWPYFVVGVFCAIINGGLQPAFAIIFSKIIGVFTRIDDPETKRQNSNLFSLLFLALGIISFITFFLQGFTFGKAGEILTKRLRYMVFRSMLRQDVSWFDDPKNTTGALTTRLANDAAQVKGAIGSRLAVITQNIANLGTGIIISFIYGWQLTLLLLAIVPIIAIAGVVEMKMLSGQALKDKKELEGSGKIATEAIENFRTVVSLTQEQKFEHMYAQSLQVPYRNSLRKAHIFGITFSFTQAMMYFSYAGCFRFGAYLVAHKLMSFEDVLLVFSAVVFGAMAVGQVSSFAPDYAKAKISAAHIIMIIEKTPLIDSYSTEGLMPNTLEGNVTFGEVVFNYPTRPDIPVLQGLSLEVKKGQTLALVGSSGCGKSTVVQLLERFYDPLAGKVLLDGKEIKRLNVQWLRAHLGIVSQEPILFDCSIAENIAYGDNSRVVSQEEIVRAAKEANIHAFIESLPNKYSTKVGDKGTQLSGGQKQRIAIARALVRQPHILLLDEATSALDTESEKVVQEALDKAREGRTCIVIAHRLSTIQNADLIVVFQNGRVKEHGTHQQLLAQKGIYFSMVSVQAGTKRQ

Compound	IC50 ([1]; BT-474, 6 days incubation, MTT)	IC50 [2]	IC50 ([3]; MDA-MB-231, 144 h)	IC50 ([4]; MDA-MB-453, 144 h)	IC50 ([5]; NCI-N87, 144 h)	IC50 [6]	Papp A→B at 60 min, 5 µM [7]	Papp B→A at 60 min, 5 µM [7]	efflux ratio at 60 min, 5 µM [8]	Papp A→B at 60 min, 5 µM [8]	Papp B→A at 60 min, 5 µM [8]	Papp at 5 h, 50 µM [9]	IC50 [10]	IC50 [11]	IC50 [12]	efflux ratio at 60 min, 5 µM [7]	IC50 [13]	other results
NCC1CCN(c2nc(NCc3ccc(-c4ccccn4)cc3)n3ncc(Br)c3n2)CC1 [Compound 2560]	5.92 nM	0.6 nM	1.92 nM	1.61 nM	3.29 nM	4.33 nM	< 0.7 ×10⁻⁶ cm/s	26.6 ×10⁻⁶ cm/s	4.94	7.53 ×10⁻⁶ cm/s	37.2 ×10⁻⁶ cm/s	135 ×10⁻⁶ cm/s						
Brc1cnn2c(NCc3ccc(-c4ccccn4)cc3)nc(NC[C@@H]3CCCN3)nc12 [Compound 2571]	2.68 nM	1.53 nM	2.22 nM	3.55 nM	4.27 nM	7.75 nM	0.59 ×10⁻⁶ cm/s	64.2 ×10⁻⁶ cm/s	12.9	7.09 ×10⁻⁶ cm/s	91.4 ×10⁻⁶ cm/s	149 ×10⁻⁶ cm/s	5.43 nM	1.12 nM	79.6 nM	108		
N[C@H]1CCCC[C@@H]1Nc1nc(NCc2ccc(-c3ccccn3)cc2)n2ncc(Br)c2n1 [Compound 2671]	3.34 nM		1.74 nM	2.22 nM	1.47 nM	0.42 nM	0.99 ×10⁻⁶ cm/s	43.2 ×10⁻⁶ cm/s	4.54	10.1 ×10⁻⁶ cm/s	46 ×10⁻⁶ cm/s	176 ×10⁻⁶ cm/s				43.7	7.6 nM	
CNCCN(C)c1nc(NCc2ccc(-c3ccccn3)cc2)n2ncc(Br)c2n1 [Compound 2605]	2.76 nM	1.22 nM	1.54 nM	3.66 nM	4.5 nM	7.46 nM	4.05 ×10⁻⁶ cm/s	54.5 ×10⁻⁶ cm/s	1.31	30.9 ×10⁻⁶ cm/s	40.5 ×10⁻⁶ cm/s	112 ×10⁻⁶ cm/s	2.91 nM	0.33 nM	3.7 nM	13.4		MDR1 efflux potential [7]: low level; BCRP efflux potential [8]: low level
NCCCCNc1nc(NCc2ccc(-c3ccccn3)cc2)n2ncc(Br)c2n1 [Compound 2585]	1.77 nM	7.86 nM	24.7 nM	26.8 nM	15.4 nM	38.9 nM	< 3.4 ×10⁻⁶ cm/s	34 ×10⁻⁶ cm/s	27.9	1.75 ×10⁻⁶ cm/s	49 ×10⁻⁶ cm/s	< 0.3 ×10⁻⁶ cm/s						
NC[C@H]1CC[C@H](Nc2nc(NCc3ccc(-c4ccccn4)cc3)n3ncc(Br)c3n2)CC1 [Compound 2636]	3.68 nM	0.12 nM	1.46 nM	1.97 nM	2.46 nM	0.17 nM	< 12.9 ×10⁻⁶ cm/s	30.8 ×10⁻⁶ cm/s	6.21	3 ×10⁻⁶ cm/s	18.6 ×10⁻⁶ cm/s	67 ×10⁻⁶ cm/s	4.68 nM	1.28 nM	33.1 nM		8.1 nM	
CN(CCN)c1nc(NCc2ccc(-c3ccccn3)cc2)n2ncc(Br)c2n1 [Compound 2600]	1.18 nM	0.19 nM	0.29 nM	1.17 nM	1.32 nM	1.69 nM	2.05 ×10⁻⁶ cm/s	59.3 ×10⁻⁶ cm/s	2.1	22.4 ×10⁻⁶ cm/s	47.1 ×10⁻⁶ cm/s	90 ×10⁻⁶ cm/s	1.16 nM	0.28 nM	12.2 nM	28.9	1.48 nM	MDR1 efflux potential [7]: low level; BCRP efflux potential [8]: low level
N[C@H]1CCC[C@@H](Nc2nc(NCc3ccc(-c4ccccn4)cc3)n3ncc(Br)c3n2)C1 [Compound 2670]	5.77 nM		2.67 nM	9.19 nM	2.53 nM	0.72 nM	< 0.5 ×10⁻⁶ cm/s	23.5 ×10⁻⁶ cm/s	5.93	5.02 ×10⁻⁶ cm/s	29.8 ×10⁻⁶ cm/s	132 ×10⁻⁶ cm/s						
N[C@H]1CCC[C@@H]1Nc1nc(NCc2ccc(-c3ccccn3)cc2)n2ncc(Br)c2n1 [Compound 2668]	2.16 nM		0.82 nM	1.78 nM	0.84 nM	0.2 nM	1.36 ×10⁻⁶ cm/s	56.4 ×10⁻⁶ cm/s	6.99	10.2 ×10⁻⁶ cm/s	71 ×10⁻⁶ cm/s	164 ×10⁻⁶ cm/s				41.6	2.99 nM	
N[C@H]1CCN(c2nc(NCc3ccc(-c4ccccn4)cc3)n3ncc(Br)c3n2)C1 [Compound 2655]	1.57 nM		0.54 nM	0.97 nM	1.95 nM	0.14 nM	5.13 ×10⁻⁶ cm/s	26.9 ×10⁻⁶ cm/s	3.47	11.1 ×10⁻⁶ cm/s	38.7 ×10⁻⁶ cm/s	125 ×10⁻⁶ cm/s				5.25	1.66 nM	MDR1 efflux potential [7]: low level; BCRP efflux potential [8]: low level
N[C@H]1CC[C@@H](Nc2nc(NCc3ccc(-c4ccccn4)cc3)n3ncc(Br)c3n2)CC1 [Compound 2568]		0.62 nM				4.36 nM	< 0.54 ×10⁻⁶ cm/s	40.5 ×10⁻⁶ cm/s	23.6	2.52 ×10⁻⁶ cm/s	59.5 ×10⁻⁶ cm/s	88 ×10⁻⁶ cm/s	4.86 nM	0.46 nM	11.6 nM		4.95 nM	IC50 [1]: 1.75 nM; IC50 ([3]; 144 h): 0.98 nM; IC50 ([4]; 144 h): 1.67 nM; IC50 ([5]; 144 h): 2.22 nM
CC[C@@]1(O)C(=O)OCc2c1cc1n(c2=O)Cc2c-1nc1cc(F)c(C)c3c1c2[C@@H](N)CC3 [Exatecan, reference compound]							2.28 ×10⁻⁶ cm/s	16.7 ×10⁻⁶ cm/s	12.3	1.43 ×10⁻⁶ cm/s	17.6 ×10⁻⁶ cm/s	58 ×10⁻⁶ cm/s				7.31		
